# According to patent publication US11590116B2 (THERAVANCE BIOPHARMA R&D IP, LLC, priority 2019, dated 2023):
# What was measured:
# [1] = target: T1, recombinant human ALK5 (TGF-βR1) protein (Homo sapiens, UniProt P36897); experiment: Biochemical ALK5 (TGF-βR1) assay to measure pKi (LANCE Ultra ULight kinase assay); details: apparent pKi from pIC50 by Cheng-Prusoff, read-out: ALK5 pKi (converted)
# T1 construct: purchased Life Technologies PR9075A
# T1 sequence (P36897 34-503): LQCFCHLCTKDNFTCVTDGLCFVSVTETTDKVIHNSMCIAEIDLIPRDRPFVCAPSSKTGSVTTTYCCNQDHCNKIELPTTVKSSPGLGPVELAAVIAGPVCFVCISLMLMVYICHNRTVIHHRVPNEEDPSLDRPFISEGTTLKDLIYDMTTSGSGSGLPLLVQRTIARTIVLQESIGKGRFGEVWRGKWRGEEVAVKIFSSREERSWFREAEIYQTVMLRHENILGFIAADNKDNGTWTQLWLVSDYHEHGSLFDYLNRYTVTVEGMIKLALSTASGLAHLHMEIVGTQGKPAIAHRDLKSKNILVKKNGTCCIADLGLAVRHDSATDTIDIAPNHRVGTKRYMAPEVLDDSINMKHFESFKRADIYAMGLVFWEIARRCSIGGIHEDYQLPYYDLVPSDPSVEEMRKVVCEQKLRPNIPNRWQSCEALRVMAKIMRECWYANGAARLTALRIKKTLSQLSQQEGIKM
# Outline: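 After a 60 min room-temperature preincubation of ALK5 with compound, phosphorylation proceeds 60 min at 37 °C on ATP addition (125 μM as 5× stock). Detection: Eu-labelled phospho-Thr1342 Topo IIα antibody in EDTA buffer, pH 7.0; emission 665 nm.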
# [2] = test system: TGF-β-stimulated SMAD3 phosphorylation in BEAS-2B cells; experiment: Cellular ALK5 potency assay, inhibition of TGF-β stimulated pSMAD3 formation in BEAS-2B cells; assay type: cell-based; details: Homo sapiens; inhibition of TGF-β stimulated pSMAD3 formation, BEAS-2B cells; read-out: BEAS2B pIC50 (converted)
# Outline: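 BEAS-2B human lung epithelial cells pre-treated 1 h at 37° C with compound in HBSS/25 mM HEPES/1% BSA, then stimulated 30 min with 10 ng/mL TGF-β (final). Lysates assayed for pSMAD3 by AlphaLISA; pIC50 from dose-dependent change versus stimulated untreated cells.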
Compound,Ki [1] [nM],IC50 [2] [nM]
"Cc1cccc(-c2n[nH]cc2-c2ccc3ncc(NCC4CN5CCN4CC5)cc3n2)n1 (centres unmarked) [Compound 566, N-(1,4-diazabicyclo[2.2.2]octan-2-ylmethyl)-6-[3-(6-methyl-2-pyridyl)-1H-pyrazol-4-yl]-1,5-naphthyridin-3-amine]",0.0398 to 0.316,25.1 to 158
"Cc1cccc(-c2n[nH]cc2-c2ccc3ncc(-c4nc5c(s4)CNCC5)cc3n2)n1 [Compound 175, 2-[6-[3-(6-methyl-2-pyridyl)-1H-pyrazol-4-yl]-1,5-naphthyridin-3-yl]-4,5,6,7-tetrahydrothiazolo[5,4-c]pyridine]",0.0398 to 0.316,25.1 to 158
"Cc1cccc(-c2c(-c3ccc4ncc(N5CCC(N6CCN(C)CC6)CC5)cc4c3)nnn2Cc2ccccc2)n1 [Compound 578, 6-[1-benzyl-5-(6-methyl-2-pyridyl)triazol-4-yl]-3-[4-(4-methylpiperazin-1-yl)-1-piperidyl]quinoline]",3.98 to 31.6,1580 to 10000
"Cc1cccc(-c2[nH]ncc2-c2ccc3ncc(C(=O)O[C@@H]4CCN(C)C4)cc3n2)n1 [Compound 421, [(3R)-1-methylpyrrolidin-3-yl] 6-[5-(6-methyl-2-pyridyl)-1H-pyrazol-4-yl]-1,5-naphthyridine-3-carboxylate]",0.398 to 3.16,25.1 to 158
"Cc1nc(-c2n[nH]cc2-c2ccc3ncc(-c4cnn(C[C@H]5CCC[C@@H](N)C5)c4)cc3n2)ccc1F (racemic) [Compound 463, rac-(1R,3S)-3-[[4-[6-[3-(5-fluoro-6-methyl-2-pyridyl)-1H-pyrazol-4-yl]-1,5-naphthyridin-3-yl]pyrazol-1-yl]methyl]cyclohexanamine]",< 0.0316,25.1 to 158
"Cc1cccc(-c2n[nH]cc2-c2ccc3ncc(N4CCCNCC4)cc3n2)n1 [Compound 349, 7-(1,4-diazepan-1-yl)-2-[3-(6-methyl-2-pyridyl)-1H-pyrazol-4-yl]-1,5-naphthyridine]",0.0398 to 0.316,25.1 to 158
"Cc1nc(-c2n[nH]cc2-c2ccc3ncc(-c4cc5n(n4)CCNC5)cc3n2)ccc1F [Compound 391, 2-[3-(5-fluoro-6-methyl-2-pyridyl)-1H-pyrazol-4-yl]-7-(4,5,6,7-tetrahydropyrazolo[1,5-a]pyrazin-2-yl)-1,5-naphthyridine]",< 0.0316,< 20
"Cc1cccc(-c2n[nH]cc2-c2ccc3ncc(-c4[nH]nc5c4CCNC5)cc3n2)n1 [Compound 622, 2-[3-(6-methyl-2-pyridyl)-1H-pyrazol-4-yl]-7-(4,5,6,7-tetrahydro-2H-pyrazolo[3,4-c]pyridin-3-yl)-1,5-naphthyridine]",0.0398 to 0.316,200 to 1260
"Cc1cccc(-c2[nH]ncc2-c2ccc3ncc(C(=O)NC4CCNCC4)cc3n2)n1 [Compound 337, 6-[5-(6-methyl-2-pyridyl)-1H-pyrazol-4-yl]-N-(4-piperidyl)-1,5-naphthyridine-3-carboxamide]",0.0398 to 0.316,200 to 1260
"Cc1cccc(-c2n[nH]cc2-c2ccc3ncc(N4CC5CNC5C4)cc3n2)n1 (centres unmarked) [Compound 219, 7-(3,6-diazabicyclo[3.2.0]heptan-3-yl)-2-[3-(6-methyl-2-pyridyl)-1H-pyrazol-4-yl]-1,5-naphthyridine]",0.0398 to 0.316,25.1 to 158
"Cc1cccc(-c2n[nH]cc2-c2ccc3ncc(NC(=O)CN4CCOCC4)cc3n2)n1 [Compound 353, N-[6-[3-(6-methyl-2-pyridyl)-1H-pyrazol-4-yl]-1,5-naphthyridin-3-yl]-2-morpholino-acetamide]",0.0398 to 0.316,25.1 to 158
"Cc1cccc(-c2nc3sccn3c2-c2ccc3ncc(Br)cc3n2)n1 [Compound 511, 5-(7-Bromo-1,5-naphthyridin-2-yl)-6-(6-methylpyridin-2-yl)imidazo[2,1-b]thiazole]",0.398 to 3.16,25.1 to 158
"Cc1cccc(-c2[nH]ncc2-c2ccc3ncc(C(=O)O[C@H]4CC[C@](C)(N)CC4)cc3c2)n1 [Compound 1196, (4-amino-4-methyl-cyclohexyl) 6-[5-(6-methyl-2-pyridyl)-1H-pyrazol-4-yl]quinoline-3-carboxylate]",0.0398 to 0.316,< 20
"Cc1cccc(-c2n[nH]cc2-c2ccc3ncc(-c4cn(Cc5cnc6c(c5)CNCC6)nn4)cc3n2)n1 [Compound 325, 2-[3-(6-methyl-2-pyridyl)-1H-pyrazol-4-yl]-7-[1-(5,6,7,8-tetrahydro-1,6-naphthyridin-3-ylmethyl)triazol-4-yl]-1,5-naphthyridine]",< 0.0316,200 to 1260
"Cc1cccc(-c2n[nH]cc2-c2ccc3nccc(C(=O)OCCCN4CCOCC4)c3n2)n1 [Compound 826, 3-morpholinopropyl 6-[3-(6-methyl-2-pyridyl)-1H-pyrazol-4-yl]-1,5-naphthyridine-4-carboxylate]",0.398 to 3.16,25.1 to 158
"Cc1nc(-c2n[nH]cc2-c2ccc3ncc(N4CCC(N5CCCC5)CC4)cc3n2)ccc1F [Compound 114, 2-[3-(5-fluoro-6-methyl-2-pyridyl)-1H-pyrazol-4-yl]-7-(4-pyrrolidin-1-yl-1-piperidyl)-1,5-naphthyridine]",< 0.0316,25.1 to 158

# Further lines, with some results ahead:
Ki [1] [nM],Compound,IC50 [2] [nM]
0.0398 to 0.316,"Cc1cccc(-c2[nH]cnc2-c2ccc3ncc(-c4ccc(C(=O)O[C@H]5CCNC5)cn4)cc3c2)n1 [Compound 1119, [(3S)-pyrrolidin-3-yl] 6-[6-[5-(6-methyl-2-pyridyl)-1H-imidazol-4-yl]-3-quinolyl]pyridine-3-carboxylate]",25.1 to 158
0.0398 to 0.316,"Cc1cccc(-c2[nH]cnc2-c2ccc3ncc(-c4cncc(C(=O)O[C@@H]5CCNC5)c4)cc3c2)n1 [Compound 725, [(3R)-pyrrolidin-3-yl] 5-[6-[5-(6-methyl-2-pyridyl)-1H-imidazol-4-yl]-3-quinolyl]pyridine-3-carboxylate]",25.1 to 158
0.0398 to 0.316,"Cc1cccc(-c2[nH]cnc2-c2ccc3ncc(-c4cccc(C(=O)OC5CCNCC5)c4)cc3c2)n1 [Compound 224, 4-piperidyl 3-[6-[5-(6-methyl-2-pyridyl)-1H-imidazol-4-yl]-3-quinolyl]benzoate]",25.1 to 158
0.0398 to 0.316,"Cc1cccc(-c2[nH]cnc2-c2ccc3ncc(C(=O)OCCCCN4CCCC4)cc3c2)n1 [Compound 714, 4-pyrrolidin-1-ylbutyl 6-[5-(6-methyl-2-pyridyl)-1H-imidazol-4-yl]quinoline-3-carboxylate]",25.1 to 158
0.398 to 3.16,"Cc1cccc(-c2[nH]cnc2-c2ccc3ncc(C(=O)OCCN4CC5(CCCNC5)C4)cc3c2)n1 [Compound 890, 2-(2,6-diazaspiro[3.5]nonan-2-yl)ethyl 6-(5-(6-methylpyridin-2-yl)-1H-imidazol-4-yl)quinoline-3-carboxylate]",200 to 1260
0.398 to 3.16,"Cc1cccc(-c2[nH]cnc2-c2ccc3ncc(-c4cncc(C(=O)O)c4)cc3c2)n1 [Compound 795, 5-[6-[5-(6-methyl-2-pyridyl)-1H-imidazol-4-yl]-3-quinolyl]pyridine-3-carboxylic acid]",1580 to 10000
< 0.0316,"Cc1cccc(-c2[nH]cnc2-c2ccc3ncc(C4=CCC(NCc5ccccc5)CC4)cc3c2)n1 (centres unmarked) [Compound 252, N-benzyl-4-[6-[5-(6-methyl-2-pyridyl)-1H-imidazol-4-yl]-3-quinolyl]cyclohex-3-en-1-amine]",25.1 to 158
0.0398 to 0.316,"Cc1cccc(-c2[nH]cnc2-c2ccc3ncc(-c4cccc(C(=O)OC5CCNCC5)n4)cc3c2)n1 [Compound 1062, 4-piperidyl 6-[6-[5-(6-methyl-2-pyridyl)-1H-imidazol-4-yl]-3-quinolyl]pyridine-2-carboxylate]",25.1 to 158
3.98 to 31.6,"Cc1cccc(-c2[nH]cnc2-c2ccc3ncc(-c4cccc5c4CNCC5)cc3c2)n1 [Compound 493, 6-[5-(6-methyl-2-pyridyl)-1H-imidazol-4-yl]-3-(1,2,3,4-tetrahydroisoquinolin-8-yl)quinoline]",200 to 1260
0.0398 to 0.316,"Cc1cccc(-c2[nH]cnc2-c2ccc3ncc(-c4cnc(C(=O)O[C@H]5CCNC5)nc4)cc3c2)n1 [Compound 1072, [(3S)-pyrrolidin-3-yl] 5-[6-[5-(6-methyl-2-pyridyl)-1H-imidazol-4-yl]-3-quinolyl]pyrimidine-2-carboxylate]",200 to 1260
< 0.0316,"Cc1cccc(-c2[nH]cnc2-c2ccc3ncc(N4CC5(CNC5)C4)cc3c2)n1 [Compound 131, 3-(2,6-diazaspiro[3.3]heptan-2-yl)-6-[5-(6-methyl-2-pyridyl)-1H-imidazol-4-yl]quinoline]",25.1 to 158
0.0398 to 0.316,"Cc1cccc(-c2[nH]cnc2-c2ccc3ncc(-c4ccc5c(c4)CCNC5)cc3c2)n1 [Compound 278, 6-[5-(6-methyl-2-pyridyl)-1H-imidazol-4-yl]-3-(1,2,3,4-tetrahydroisoquinolin-6-yl)quinoline]",< 20
